Assay results from ChEMBL document CHEMBL1201862, “PubChem BioAssay data set” (2004).
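Following 48 hours of exposure in 96-well plates, responses at five concentrations were used to interpolate endpoints linearly. Here, GI50 denotes the concentration required for 50% inhibition of growth.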 Activity calls are given as the source filed them. Rule as the data show it: active = GI50 up to about 1.1 µM and inactive = higher.

Legend:
Assay in all cases: NCI tumour cell line growth inhibition, 48 h
[1] = test system: 786-0
[2] = test system: A498
[3] = test system: A549
[4] = test system: ACHN
[5] = test system: CAKI-1
[6] = test system: COLO 205
[7] = test system: DLD-1
[8] = test system: DMS-114
[9] = test system: DMS-273
[10] = test system: EKVX
[11] = test system: HCT-116
[12] = test system: HCT-15
[13] = test system: HL-60
[14] = test system: HOP-62
[15] = test system: HOP-92
[16] = test system: HT-29
[17] = test system: IGROV-1
[18] = test system: K562
[19] = test system: KM-20L2
[20] = test system: LOX IMVI
[21] = test system: LXFL 529
[22] = test system: M14
[23] = test system: M19-MEL
[24] = test system: MOLT-4
[25] = test system: Malme-3M
[26] = test system: NCI-H226
[27] = test system: NCI-H23
[28] = test system: NCI-H460
[29] = test system: NCI-H522
[30] = test system: OVCAR-3
[31] = test system: OVCAR-4
[32] = test system: OVCAR-5
[33] = test system: OVCAR-8
[34] = test system: RPMI-8226
[35] = test system: RXF 393
[36] = test system: RXF 631
[37] = test system: SF-268
[38] = test system: SF-295
[39] = test system: SF-539
[40] = test system: SK-MEL-28
[41] = test system: SK-MEL-2
[42] = test system: SK-MEL-5
[43] = test system: SK-OV-3
[44] = test system: SN12C
[45] = test system: SNB-19
[46] = test system: SNB-75
[47] = test system: SNB-78
[48] = test system: SW-620
[49] = test system: TK-10
[50] = test system: UACC-257
[51] = test system: UACC-62
[52] = test system: UO-31
[53] = test system: XF498

Measured: GI50

O=C(CC1(O)C(=O)Nc2ccccc21)c1cccc(O)c1 (stereo not drawn)
inactive: [1] > 100 µM | [2] > 100 µM | [3] > 100 µM | [4] > 100 µM | [5] > 100 µM | [6] > 100 µM | [7] > 100 µM | [8] > 100 µM | [9] > 100 µM | [10] > 100 µM | [11] > 100 µM | [13] > 100 µM | [14] > 100 µM | [15] > 100 µM | [16] > 100 µM | [17] > 100 µM | [18] > 100 µM | [19] > 100 µM | [20] > 100 µM | [21] > 100 µM | [22] > 100 µM | [23] > 100 µM | [24] > 100 µM | [25] > 100 µM | [26] > 100 µM | [27] > 100 µM | [28] > 100 µM | [29] > 100 µM | [30] > 100 µM | [31] > 100 µM | [32] > 100 µM | [33] > 100 µM | [34] > 100 µM | [35] > 100 µM | [36] > 100 µM | [37] > 100 µM | [38] > 100 µM | [39] > 100 µM | [40] > 100 µM | [41] > 100 µM | [42] 48.3 µM | [43] > 100 µM | [44] > 100 µM | [45] > 100 µM | [46] > 100 µM | [47] > 100 µM | [48] > 100 µM | [49] > 100 µM | [50] > 100 µM | [51] > 100 µM | [52] 46.1 µM | [53] 42.5 µM
> 100 µM: [12]
